Source: patent publication US20050106249A1 (priority 2002, published 2005)

Assays:
[1] = system: healthy male subjects; experiment: Example 5 cold pain test; settings: 10 mg IV infusion over 15 min
[2] = system: healthy male subjects; experiment: Example 5 pupil size; type: in vivo, human; settings: IV morphine 10 mg; Example 2 SZO-24 dosage form 2×20 mg
[3] = analyte in plasma after 40 mg (oxycodone HCl) SZO-24 dosage form
[4] = cited from earlier work
[5] = system: Male Sprague-Dawley (SD) rats; experiment: Example 8 rat tolerance study, tail-flick assay; settings: for Tail flick results: mean ± SD
Description: The biphasic dosing regimen used subcutaneous (SC) infusion, and the SZO regimen used subcutaneously-implanted ALZET® osmotic pumps. The vehicle control for the study was 0.9% saline.
The rodent tail-flick assay was used to assess analgesia (antinociception). […] In the assay, rodents are briefly restrained and radiant heat is applied to the tip of the tail. The time it takes for the animal to flick its tail is recorded; a delay in this response compared to pre-dose readings is indicative of antinociception.
An IITC Model 33 Tail Flick Analgesia Meter was used to apply heat to the animal's tail (IITC Life Science, Woodland Hills, Calif.). […] (this temperature allows pre-warming of the animal's tail to allow for more uniform measurements from day-to-day and test-to-test); • (3) Cutoff Time: 10 seconds (i.e., the length of time from the start of the test until the unit automatically ends the test to prevent tissue damage).
The animals were briefly restrained in plexiglass restrainers and radiant heat was applied to the tip of the animal's tail (approximately 1-2 cm from the tip). After the temperature reached 30° C., the meter increased the light intensity providing a noxious stimulus to the animal's tail. The time in seconds for the animal to flick its tail was recorded for each animal.
Tail flick latency values were converted to a percentage of the maximum possible effect (%MPE) using the following formula: %MPE=100×(ΔL/ΔLmax) where: ΔL=Post-dose Latency−Pre-dose Latency, and ΔLmax=Cutoff Time−Pre-dose Latency.
For the biphasic dosing regimen, the animals were subcutaneously infused using a computer-controlled Harvard syringe pump. […] The animals had catheters implanted subcutaneously with approximately 7 cm of PE 10 tubing. The tubing was secured with sutures and sterile surgical skin glue to prevent accidental removal of the catheter.
For the SZO dosing regimen, ALZET® osmotic pumps (Model 2ML1) were implanted subcutaneously in the animals. […] For the SZO dosing, the rats were not tethered.
Male Sprague-Dawley (SD) rats obtained from Charles River (Hollister, Calif.) and weighing at least 200g were used in the experiments. Extra animals were employed in the biphasic dosing regimen to take account of damaged catheters, but only enough animals were dosed on Day +3 to replace the animals with damaged catheters.
Intuitively, the difference between the effect of the same test on Day +3 and Day −1 should be a direct measure of tolerance. The data collected from rats tested for responses at 0, 0.25, 0.5, 0.75, and 1 mg/kg were thus used to perform the statistical analysis.
The data (difference between Day +3 and Day −1) were analyzed by the analysis of variance (ANOVA) method. The full variance model consisted of the three primary factors, their first-order interaction terms and their second order interaction term, namely: • dosing regimen, • 3-day treatment, • tail flick testing dose, • dosing regimen×3-day treatment, • dosing regimen×tail flick testing dose, • 3-day treatment×tail flick testing dose, and • dosing regiment×3-day treatment x tail flick testing dose.

[6] = human plasma; orally administered immediate release oxycodone; cited from earlier work

CN1CC[C@]23c4c5ccc(O)c4O[C@H]2[C@@H](O)C=C[C@H]3[C@H]1C5 [IV morphine, morphine]
separation from placebo in the cold pain test [1]: did not statistically separate from placebo
pupil size changes [2]: consistent with their respective pharmacokinetic profiles

COc1ccc2c3c1O[C@H]1C(=O)CC[C@@]4(O)[C@@H](C2)NCC[C@]314 [Noroxycodone]
AUCinf, single dose [3]: 421.2 ng·h/mL
Cmax, single-dose plasma concentration [3]: 0.01312 µg/mL

COc1ccc2c3c1OC1C(=O)CC[C@@]4(O)[C@@H](C2)N(C)CC[C@]314 (stereo partly shown) [oxycodone, 4,5-epoxy-14-hydroxy-3-methoxy-17-methylmorphinan-6-one]
onset of action, analgesia occurring ([4]; orally administered): ≤ 30 min
analgesic action apparent (onset) ([4]; parenterally administered): ≤ 15 min
Tail flick results ([5]; Biphasic dosing (SC infusion, syringe pump, 10 mg/(kg · d)), 3-day treatment oxycodone, testing dose 0 mg/kg, Day +3, n = 7): 1.55 ± 4.70 % MPE
Tail flick results ([5]; Biphasic dosing (SC infusion, syringe pump, 10 mg/(kg · d)), 3-day treatment oxycodone, testing dose 0.25 mg/kg SC, Day +3, n = 8): 0.48 ± 2.28 % MPE
Tail flick results ([5]; Biphasic dosing (SC infusion, syringe pump, 10 mg/(kg · d)), 3-day treatment oxycodone, testing dose 0.25 mg/kg SC, Day −1, n = 8): 4.75 ± 6.80 % MPE
Tail flick results ([5]; Biphasic dosing (SC infusion, syringe pump, 10 mg/(kg · d)), 3-day treatment oxycodone, testing dose 0.5 mg/kg SC, Day +3, n = 8): 10.64 ± 7.72 % MPE
Tail flick results ([5]; Biphasic dosing (SC infusion, syringe pump, 10 mg/(kg · d)), 3-day treatment oxycodone, testing dose 0.5 mg/kg SC, Day −1, n = 8): 34.19 ± 28.28 % MPE
Tail flick results ([5]; Biphasic dosing (SC infusion, syringe pump, 10 mg/(kg · d)), 3-day treatment oxycodone, testing dose 0.75 mg/kg SC, Day −1, n = 8): 49.32 ± 32.89 % MPE
Tail flick results ([5]; Biphasic dosing (SC infusion, syringe pump, 10 mg/(kg · d)), 3-day treatment oxycodone, testing dose 1 mg/kg SC, Day +3, n = 8): 30.73 ± 19.05 % MPE
Tail flick results ([5]; Biphasic dosing (SC infusion, syringe pump, 10 mg/(kg · d)), 3-day treatment oxycodone, testing dose 1 mg/kg SC, Day −1, n = 8): 84.61 ± 27.43 % MPE
Tail flick results ([5]; Biphasic dosing (SC infusion, syringe pump, 10 mg/(kg · d)), 3-day treatment oxycodone, testing dose 1.5 mg/kg SC, Day −1, n = 8): 100.00 ± 0.00 % MPE
Tail flick results ([5]; Biphasic dosing (SC infusion, syringe pump, 10 mg/(kg · d)), 3-day treatment oxycodone, testing dose 3.0 mg/kg SC, Day +3, n = 8): 84.81 ± 26.06 % MPE
Tail flick results ([5]; Biphasic dosing group, 3-day treatment saline, testing dose 0.25 mg/kg SC, Day +3, n = 8): 9.25 ± 12.00 % MPE
Tail flick results ([5]; Biphasic dosing group, 3-day treatment saline, testing dose 0.25 mg/kg SC, Day −1, n = 8): 13.82 ± 7.87 % MPE
Tail flick results ([5]; Biphasic dosing group, 3-day treatment saline, testing dose 0.5 mg/kg SC, Day +3, n = 8): 15.22 ± 12.44 % MPE
Tail flick results ([5]; Biphasic dosing group, 3-day treatment saline, testing dose 0.5 mg/kg SC, Day −1, n = 8): 26.59 ± 22.79 % MPE
Tail flick results ([5]; Biphasic dosing group, 3-day treatment saline, testing dose 0.75 mg/kg SC, Day +3, n = 8): 48.59 ± 39.89 % MPE
Tail flick results ([5]; Biphasic dosing group, 3-day treatment saline, testing dose 0.75 mg/kg SC, Day −1, n = 8): 73.56 ± 28.57 % MPE
Tail flick results ([5]; Biphasic dosing group, 3-day treatment saline, testing dose 1 mg/kg SC, Day +3, n = 7): 46.00 ± 18.96 % MPE
Tail flick results ([5]; Biphasic dosing group, 3-day treatment saline, testing dose 1 mg/kg SC, Day −1, n = 7): 89.52 ± 20.25 % MPE
Tail flick results ([5]; Biphasic dosing group, 3-day treatment saline, testing dose 1.5 mg/kg SC, Day −1, n = 8): 92.48 ± 16.05 % MPE
Tail flick results ([5]; Biphasic dosing group, 3-day treatment saline, testing dose 3.0 mg/kg SC, Day +3, n = 8): 92.97 ± 15.65 % MPE
Tail flick results ([5]; SZO dosing (SC ALZET, 10 mg/(kg · d)), 3-day treatment oxycodone, testing dose 0 mg/kg, Day +3, n = 8): −4.75 ± 8.51 % MPE
Tail flick results ([5]; SZO dosing (SC ALZET, 10 mg/(kg · d)), 3-day treatment oxycodone, testing dose 0.25 mg/kg SC, Day +3, n = 8): −2.07 ± 4.18 % MPE
Tail flick results ([5]; SZO dosing (SC ALZET, 10 mg/(kg · d)), 3-day treatment oxycodone, testing dose 0.25 mg/kg SC, Day −1, n = 8): 14.72 ± 16.16 % MPE
Tail flick results ([5]; SZO dosing (SC ALZET, 10 mg/(kg · d)), 3-day treatment oxycodone, testing dose 0.5 mg/kg SC, Day +3, n = 8): 8.48 ± 17.38 % MPE
Tail flick results ([5]; SZO dosing (SC ALZET, 10 mg/(kg · d)), 3-day treatment oxycodone, testing dose 0.5 mg/kg SC, Day −1, n = 8): 33.12 ± 19.58 % MPE
Tail flick results ([5]; SZO dosing (SC ALZET, 10 mg/(kg · d)), 3-day treatment oxycodone, testing dose 0.75 mg/kg SC, Day +3, n = 8): 7.90 ± 11.36 % MPE
Tail flick results ([5]; SZO dosing (SC ALZET, 10 mg/(kg · d)), 3-day treatment oxycodone, testing dose 0.75 mg/kg SC, Day −1, n = 8): 60.76 ± 31.45 % MPE
Tail flick results ([5]; SZO dosing (SC ALZET, 10 mg/(kg · d)), 3-day treatment oxycodone, testing dose 1 mg/kg SC, Day +3, n = 8): 23.75 ± 25.96 % MPE
Tail flick results ([5]; SZO dosing (SC ALZET, 10 mg/(kg · d)), 3-day treatment oxycodone, testing dose 1 mg/kg SC, Day −1, n = 8): 80.15 ± 36.76 % MPE
Tail flick results ([5]; SZO dosing (SC ALZET, 10 mg/(kg · d)), 3-day treatment oxycodone, testing dose 1.5 mg/kg SC, Day −1, n = 8): 91.44 ± 24.22 % MPE
Tail flick results ([5]; SZO dosing (SC ALZET, 10 mg/(kg · d)), 3-day treatment oxycodone, testing dose 3.0 mg/kg SC, Day +3, n = 8): 94.35 ± 11.48 % MPE
Tail flick results ([5]; SZO dosing group, 3-day treatment saline, testing dose 0.25 mg/kg SC, Day +3, n = 8): 7.44 ± 11.94 % MPE
Tail flick results ([5]; SZO dosing group, 3-day treatment saline, testing dose 0.25 mg/kg SC, Day −1, n = 8): 13.69 ± 8.94 % MPE
Tail flick results ([5]; SZO dosing group, 3-day treatment saline, testing dose 0.5 mg/kg SC, Day +3, n = 8): 8.92 ± 11.30 % MPE
Tail flick results ([5]; SZO dosing group, 3-day treatment saline, testing dose 0.5 mg/kg SC, Day −1, n = 8): 21.86 ± 13.71 % MPE
Tail flick results ([5]; SZO dosing group, 3-day treatment saline, testing dose 0.75 mg/kg SC, Day +3, n = 8): 51.09 ± 46.28 % MPE
Tail flick results ([5]; SZO dosing group, 3-day treatment saline, testing dose 0.75 mg/kg SC, Day −1, n = 8): 65.33 ± 32.06 % MPE
Tail flick results ([5]; SZO dosing group, 3-day treatment saline, testing dose 1 mg/kg SC, Day +3, n = 8): 35.55 ± 27.94 % MPE
Tail flick results ([5]; SZO dosing group, 3-day treatment saline, testing dose 1 mg/kg SC, Day −1, n = 8): 90.33 ± 19.58 % MPE
Tail flick results ([5]; SZO dosing group, 3-day treatment saline, testing dose 1.5 mg/kg SC, Day −1, n = 8): 100.00 ± 0.00 % MPE
Tail flick results ([5]; SZO dosing group, 3-day treatment saline, testing dose 3.0 mg/kg SC, Day +3, n = 8): 100.00 ± 0.00 % MPE
tolerance, SZO dosing regimen versus biphasic dosing regimen ([5]; full ANOVA model, 158 rats): not statistically significantly different
tolerance, rats treated with oxycodone for 3 days versus saline ([5]; full ANOVA model, p=0.0039): statistically different
estimated mean tolerance difference between the SZO dosing regimen and the biphasic dosing regimen ([5]; reduced ANOVA model, not statistically different at α 0.05): −3.2 %MPE
estimated mean tolerance difference (Day +3 minus Day −1) between the oxycodone and saline treated rats ([5]; reduced ANOVA model, p=0.0035, testing doses 0-1 mg/kg): −10.7 %MPE
half-life [6]: about 3.2 hours
